Tests used:
[1] = system: PANK2 silenced human neuroblastoma IMR32 cells (PANK2−/−); test: Coenzyme A assay in PANK2 silenced cells (LC-MS quantification of free CoA); type: cell-based; settings: compound added twice (24 h + 24 h), relative to 0.1% DMSO controls
How it was run: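 Free intracellular CoA was measured by positive-mode LC-MS/MS of 20% TFA extracts, taking 2 μl per 10^6 cells as intracellular volume. Cells were IMR32 with stable lentiviral PANK2 knockdown, dosed twice 24 h apart (48 h total, 0.1% DMSO). Output is fold increase over vehicle.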

[2] = Stability in human hepatocytes; type: in vitro ADME
Description: (§1) Stability in hepatocytes for select compounds disclosed in the application was evaluated in two species (mouse and human) according to the following procedure. Compounds and positive control samples were dissolved in 100% DMSO at 5 mM. Cryopreserved hepatocytes were thawed and resuspended in Hepatocyte Basal Medium (HBM-Lonza CC-3199) supplemented with CC-4182 (complete hepatocyte culture medium). Test compounds were diluted into cell suspension (1 million cells/ml) from the stock solutions to have a test compound concentration of 5 μM (0.1% DMSO). Incubation was performed in 24-well plates, at 37° C. in a DUBNOFF water bath, under low shaking. Each compound was tested at 6 time points, in duplicates (0, 15, 30, 60, 120 and 240 min). At each time point, an aliquot of 120 μl was taken and transferred to a 96-well deep plate. The reaction was stopped with the addition of one volume of 100% acetonitrile plus 0.1% formic acid and the appropriate internal standard. Then samples were centrifuged at 1100×g for 30 min at +4° C. and supernatants were transferred to a new 96-deepwell plate. Samples were evaporated under N2 and reconstituted in H2O/ACN 0.1% Formic Acid (98:2). Analysis was performed without a calibration curve (Acquity UPLC-Waters; Sciex API4000). Time 0 was obtained adding acetonitrile before addition of the test compound. […] The half-life (t1/2) expressed in hours is derived using Equation 1 as shown in Example 64.

[3] = Stability in mouse hepatocytes; type: in vitro ADME; settings: t1/2, Mouse Hepatocytes
Description: as §1

[4] = Stability in mouse plasma; type: in vitro ADME; settings: mouse, plasma; for t1/2, Mouse Plasma, Diastereoisomer B: 3 µM
Description: Compounds and positive control samples were dissolved in 100% DMSO at 3 mM. To investigate the stability of the test compounds in plasma, samples were made by diluting test compounds into plasma from the stock solutions to obtain a test compound concentration of 3 μM (0.1% DMSO). Before addition of a test compound, 990 μl of plasma were preincubated at 37° C. for 5 min in eppendorf. After addition of a test compound, 70 μl for each time point were transferred to a 96-deepwell plate, previously warmed at 37° C. in a DUBNOFF water bath. Each compound was tested at five time points, in duplicate (10, 20, 30, 40 and 60 min). At each time point, an aliquot of 50 μl was taken and transferred to a new 96-deepwell plate, and the reaction was stopped with 200 μl of 100% acetonitrile containing 0.1% formic acid and the appropriate internal standard. Then samples were centrifuged at 1100×g for 30 min at +4° C. and supernatants were transferred to a new 96-deepwell plate. Samples were evaporated under N2 and reconstituted in H2O/ACN 0.1% Formic Acid (98:2). Analysis was performed without a calibration curve (Acquity UPLC-Waters; SciexAPI4000). Time 0 was obtained by adding acetonitrile before addition of the test compound.

[5] = Stability in human plasma; type: in vitro ADME; settings: human, plasma, 37° C.
How it was run: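 Test compound at 3 μM (0.1% DMSO) was incubated in mouse or human plasma at 37 °C and sampled in duplicate at 0, 10, 20, 30, 40 and 60 min. Reactions were stopped with acetonitrile/formic acid containing internal standard. Remaining parent was measured by UPLC-MS/MS without a calibration curve.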

[6] = t1/2, Human Hepatocytes, Diastereoisomer A
[7] = t1/2, Human Hepatocytes, Diastereoisomer B
[8] = Diastereoisomer A (upfield shift in 31P NMR), 5 μM, 1 million cells/ml, 37° C., human hepatocytes, read-out: t1/2, Human Hepatocytes, Diastereoisomer A (converted)
[9] = Diastereoisomer A (upfield shift in 31P NMR), read-out: t1/2, Human Plasma, Diastereoisomer A (converted)
[10] = Diastereoisomer B, read-out: t1/2, Human Plasma, Diastereoisomer B (converted)

| SMILES | half-life at 5 µM [2, 6] [min] | half-life at 3 µM [4] [min] | half-life at 3 µM [5, 9] [min] | PANK2−/− CoA (Fold Increase): fold increase in Coenzyme A (CoA) levels relative to controls [1] [Fold Increase] | other results |
| --- | --- | --- | --- | --- | --- |
| COC(=O)CCNC(=O)[C@@H]1OP(=O)(Oc2ccc(F)cc2)OCC1(C)C (stereo partly drawn) [2-118, methyl 3-((4R)-2-(4-fluorophenoxy)-5,5-dimethyl-2-oxido-1,3,2-dioxaphosphinane-4-carboxamido)propanoate] | – | – | – | 1.38 | half-life at 5 µM [2, 8]: 33 min; half-life at 5 µM ([2]; Diastereoisomer B, 5 μM, 1 million cells/ml, 37° C., human hepatocytes, read-out: t1/2, Human Hepatocytes, Diastereoisomer B (converted)): 36 min |
| COC(=O)[C@H](C)N[P@@]1(=O)OCC(C)(C)[C@H](C(=O)NCCC(=O)OCc2cn(C)cn2)O1 [compound 22, methyl ((2R,4R)-5,5-dimethyl-4-((3-((1-methyl-1H-imidazol-4-yl)methoxy)-3-oxopropyl)carbamoyl)-2-oxido-1,3,2-dioxaphosphinan-2-yl)-L-alaninate] | > 240 | – | – | – | half-life at 5 µM ([3]; Diastereoisomer A): 37.2 min |
| COC(=O)CCNC(=O)[C@@H]1OP(=O)(OCOC(=O)c2scnc2C)OCC1(C)C (stereo partly drawn) [Compound No. 2-139, (((4R)-4-((3-methoxy-3-oxopropyl)carbamoyl)-5,5-dimethyl-2-oxido-1,3,2-dioxaphosphinan-2-yl)oxy)methyl 4-methylthiazole-5-carboxylate] | 30.6 | – | – | 44.21 | half-life at 5 µM [2, 7]: 15.6 min |
| COC(=O)CCNC(=O)[C@@H]1OP(=O)(OCOC(=O)c2ccns2)OCC1(C)C (stereo partly drawn) [Compound No. 2-140, (((4R)-4-((3-methoxy-3-oxopropyl)carbamoyl)-5,5-dimethyl-2-oxido-1,3,2-dioxaphosphinan-2-yl)oxy)methyl isothiazole-5-carboxylate] | < 15 | – | – | 37.02 | half-life at 5 µM [2, 7]: < 15 min |
| CC(C)(C)C(=O)OCOP1(=O)OCC(C)(C)[C@H](C(=O)NCCC(=O)OC2CCOC2)O1 (stereo partly drawn) [Compound No. 94, (((4R)-5,5-dimethyl-2-oxido-4-((3-oxo-3-((tetrahydrofuran-3-yl)oxy)propyl)carbamoyl)-1,3,2-dioxaphosphinan-2-yl)oxy)methyl pivalate] | – | < 9.6 | 40.8 | 13.14 | t1/2, Mouse Plasma, Diastereoisomer B [4]: <9.6 min; half-life at 3 µM [5, 10]: < 9.6 min |
| COC(=O)CCNC(=O)[C@@H]1OP(=O)(OCOC(=O)[C@H](CC(C)C)NC(C)=O)OCC1(C)C (stereo partly drawn) [Compound No. 73, (((4R)-4-((3-methoxy-3-oxopropyl)carbamoyl)-5,5-dimethyl-2-oxido-1,3,2-dioxaphosphinan-2-yl)oxy)methyl acetyl-L-leucinate] | – | < 9.6 | < 13.8 | 6.92 | t1/2, Mouse Plasma, Diastereoisomer B [4]: <9.6 min; half-life at 3 µM [5, 10]: < 9.6 min |
| COC(=O)[C@H](C)NP1(=O)OCC(C)(C)[C@H](C(=O)NCCC(=O)OCc2cc(C)on2)O1 (stereo partly drawn) [compound 21, (2S)-methyl 2-(((4R)-5,5-dimethyl-4-((3-((5-methylisoxazol-3-yl)methoxy)-3-oxopropyl)carbamoyl)-2-oxido-1,3,2-dioxaphosphinan-2-yl)amino)propanoate] | 70.8 | – | – | – | half-life at 5 µM ([3]; Diastereoisomer A): < 15 min; half-life at 5 µM ([3]; Diastereoisomer B): < 15 min; half-life at 5 µM [2, 7]: 40.2 min |
| COC(=O)CCNC(=O)[C@@H]1OP(=O)(OCOC(=O)C2(C)CN(C(=O)OC(C)(C)C)C2)OCC1(C)C (stereo partly drawn) [Compound No. 85, 1-(tert-butyl) 3-((((4R)-4-((3-methoxy-3-oxopropyl)carbamoyl)-5,5-dimethyl-2-oxido-1,3,2-dioxaphosphinan-2-yl)oxy)methyl) 3-methylazetidine-1,3-dicarboxylate] | – | < 9.6 | < 9.6 | 216.8 | t1/2, Mouse Plasma, Diastereoisomer B [4]: <9.6 min; half-life at 3 µM [5, 10]: < 9.6 min |
| COC(=O)CCNC(=O)[C@@H]1O[P@@](=O)(Oc2ccc(C(F)(F)F)cc2)OCC1(C)C [2-119, methyl 3-((2S,4R)-5,5-dimethyl-2-oxido-2-(4-(trifluoromethyl)phenoxy)-1,3,2-dioxaphosphinane-4-carboxamido)propanoate] | – | – | – | 1.67 | half-life at 5 µM [2, 8]: 30.6 min |
| COC(=O)CCNC(=O)[C@@H]1OP(=O)(OCOC(=O)OC(C)(C)C)OCC1(C)C (stereo partly drawn) [compound 88, methyl 3-((4R)-2-(((tert-butoxycarbonyl)oxy)methoxy)-5,5-dimethyl-2-oxido-1,3,2-dioxaphosphinane-4-carboxamido)propanoate] | – | < 9.6 | 42.6 | 2.66 | t1/2, Mouse Plasma, Diastereoisomer B [4]: <9.6 min; half-life at 3 µM [5, 10]: 21.6 min |
| COC(=O)CCNC(=O)[C@@H]1OP(=O)(OCOC(=O)OCc2cccnc2)OCC1(C)C (stereo partly drawn) [Compound No. 97, Methyl 3-((4R)-5,5-dimethyl-2-oxido-2-((((pyridin-3-ylmethoxy)carbonyl)oxy)methoxy)-1,3,2-dioxaphosphinane-4-carboxamido)propanoate] | – | < 9.6 | < 9.6 | 77.04 | – |
| COC(=O)CCNC(=O)[C@@H]1O[P@@](=O)(N[C@@H](C)C(=O)OC2Cc3ccccc3C2)OCC1(C)C [compound 43, 2,3-dihydio-1H-inden-2-yl ((2R,4R)-4-((3-methoxy-3-oxopropyl)carbamoyl)-5,5-dimethyl-2-oxido-1,3,2-dioxaphosphinan-2-yl)-L-alaninate] | – | < 9.6 | > 60 | 1.97 | – |
| COC(=O)CCNC(=O)[C@@H]1OP(=O)(N[C@H](C)C(=O)OCc2cnccn2)OCC1(C)C (stereo in doubt) [compound 42, methyl 3-((2S,4R)-5,5-dimethyl-2-oxido-2-(((R)-1-oxo-1-(pyrazin-2-ylmethoxy)propan-2-yl)amino)-1,3,2-dioxaphosphinane-4-carboxamido)propanoate] | – | < 9.6 | > 60 | 2.42 | – |

The next lines start with results.

| half-life at 5 µM [2, 6] [min] | half-life at 3 µM [4] [min] | half-life at 3 µM [5, 9] [min] | SMILES | PANK2−/− CoA (Fold Increase): fold increase in Coenzyme A (CoA) levels relative to controls [1] [Fold Increase] | other results |
| --- | --- | --- | --- | --- | --- |
| 25.2 | – | – | COC(=O)CCNC(=O)[C@@H]1OP(=O)(OCOC(=O)NCCSC(=O)C(C)(C)C)OCC1(C)C (stereo partly drawn) [2-143, methyl 3-((4R)-5,5-dimethyl-2-oxido-2-((((2-(pivaloylthio)ethyl)carbamoyl)oxy)methoxy)-1,3,2-dioxaphosphinane-4-carboxamido)propanoate] | 1.39 | half-life at 5 µM [2, 7]: 19.2 min |
| 25.8 | – | – | COC(=O)CCNC(=O)[C@@H]1O[P@](=O)(OCOC(=O)NCCOC(=O)[C@@H](NC(=O)OCc2ccccc2)C(C)C)OCC1(C)C (single isomer, unassigned) [2-161] | 71.14 | half-life at 5 µM ([3]; Diastereoisomer A): < 15 min |
| 36.6 | – | – | COC(=O)CCNC(=O)[C@@H]1O[P@@](=O)(OCOC(=O)NCCOC(=O)[C@@H](NC(=O)OCc2ccccc2)C(C)C)OCC1(C)C (single isomer, unassigned) [2-160] | 7.99 | half-life at 5 µM ([3]; Diastereoisomer A): < 15 min |

— US10364263B2, “Cyclic phosphates and cyclic phosphoramidates for the treatment of neurologic disorders” (Retrophin, Inc., priority 2015, dated 2019)
